The target of this experiment is Human immunodeficiency virus type 1 protease (Human immunodeficiency virus 1, UniProt Q72874). The experiment can be described thus: Inhibition of recombinant HIV-1 protease.

Structures are written as SMILES.

This passage reports Ki results from ChEMBL document CHEMBL1127584, “Crystal-structure-based design and synthesis of novel C-terminal inhibitors of HIV protease” (J Med Chem, 1994).

With `Cc1cccc(C(NC(=O)CC[C@H](O)C(Cc2ccccc2)NC(=O)[C@H](CC(N)=O)NC(=O)c2ccc3ccccc3n2)c2cc3ccccc3[nH]2)c1` (some centres undefined), the Ki turned out to be 39 nM.
With `NC(=O)C[C@H](NC(=O)c1ccc2ccccc2n1)C(=O)NC(Cc1ccccc1)[C@@H](O)CCC(=O)NC(c1cccc(C(F)(F)F)c1)c1cc2ccccc2[nH]1` (some centres undefined), the Ki worked out at 33 nM.
The result for `NC(=O)C[C@H](NC(=O)c1ccc2ccccc2n1)C(=O)NC(Cc1ccccc1)[C@@H](O)CCC(=O)NC(c1ccccc1)c1nc2ccccc2[nH]1` (some centres undefined) reads 480 nM; that for `COC(=O)[C@@H](CC(=O)[C@@H](NC(=O)CC[C@H](O)[C@H](Cc1ccccc1)NC(=O)[C@H](C)NC[C@H](C)N)C(C)C)C(C)C`, 18 nM; that for `NC(=O)C[C@H](NC(=O)c1ccc2ccccc2n1)C(=O)NC(Cc1ccccc1)[C@@H](O)C[C@@H](Cc1ccccc1)C(=O)NC(c1ccccc1)c1cc2ccccc2[nH]1` (some centres undefined), 1280 nM.
The result for `C[C@H](N)C(=O)N[C@@H](C)C(=O)N[C@@H](Cc1ccccc1)[C@@H](O)CCC(=O)NC(c1ccccc1)c1cc2ccccc2[nH]1` (some centres undefined) reads 200 nM.
The result for `CC(C)CC(=O)N[C@H](C(=O)N[C@H](C(=O)N[C@@H](CC(C)C)[C@@H](O)CC(=O)N[C@@H](C)C(=O)N[C@@H](CC(C)C)[C@@H](O)CC(=O)O)C(C)C)C(C)C` [PEPSTATIN] reads 3100 nM.
Consider `NC(=O)C[C@H](NC(=O)c1ccc2ccccc2n1)C(=O)NC(Cc1ccccc1)[C@@H](O)CCC(=O)NC(c1cc2ccccc2[nH]1)C1CCCCC1` (some centres undefined), for which the Ki was determined as 180 nM.
Turning to `NC(=O)C[C@H](NC(=O)c1ccc2ccccc2n1)C(=O)NC(Cc1ccccc1)[C@@H](O)CCC(=O)NC(c1ccccc1)c1cc2ccccc2[nH]1` (some centres undefined), the Ki turned out to be 43 nM.

Broadly, the Ki is the equilibrium dissociation constant of an inhibitor or competing ligand from its target.
